test system: PANC-1 pERK; assay: Phospho-ERK 1/2 assay; type: cell-based; details: Homo sapiens, PANC-1, 3 h, PANC-1 cells, compound incubation 3 hours, pERK normalised with GAPDH antibody staining
Experimental: Allow PNAC-1 cell growth in a T75 flask in DMEM and 10% 1 fetal calf serum (FCS; Gibco®), using standard tissue culture procedures until ~80% confluency is achieved. Day 1, seed 6000 cells/well in 384 well plate and incubate at 37° C., 5% CO2. Add diluted compound by Echo 550, final DMSO is 0.5%, incubate cells at 37° C., 5% CO2 for 3 hours. Then, remove medium and fix cells with 3.7% formaldehyde in PBS (PFA) by Apricot. Wash with PBS once. Permeabilize cells with cold 100% methanol and repeat wash once with PBS once. Add Li-Cor blocking buffer to each well and incubate 1.5 hours at RT. Remove blocking buffer and add primary antibody mixture (rabbit anti pERK, mouse anti GAPDH). Incubate at 4° C. overnight. Day 2, wash with PBST (Tween-20 in PBS) with total 3 times and then add secondary antibody mixture (goat anti rabbit 800CW (1:800 dilution in the combined solution) and goat anti mouse 680RD (1:800 dilution in the combined solution)), incubate for 60 minutes at RT away from light. Repeat washing with PBST 3 times. After final wash, centrifuge plate up-side-down at 1000 rpm to remove wash solution completely from wells. Before plate scanning, clean the bottom plate surface and the Odyssey© Imager scanning bed (if applicable) with moist, lint-free tissue to avoid any obstructions during scanning. Scan plate with detection in both 700 and 800 nm channels.

Compound | IC50 [nM]
C=C1CN2CCC[C@@]2(Cn2c(=O)nc3c4c(nc(-c5cc(O)cc6ccc(F)c(CC)c56)c(F)c42)OC[C@@H]2[C@@H]4CC[C@H](CN32)N4)C1 (single isomer, unassigned) [Example 46a] | 5.9
C=C1CN2CCC[C@]2(Cn2c(=O)nc3c4c(nc(-c5cc(O)cc6ccc(F)c(CC)c56)c(F)c42)OC[C@@H]2[C@@H]4CC[C@H](CN32)N4)C1 (single isomer, unassigned) [Example 46b] | 28
C#Cc1c(F)ccc2cccc(-c3nc4c5c(nc(=O)n(C[C@]67CCCN6CC(=C)C7)c5c3F)N3C[C@H]5CC[C@H](N5)[C@H]3[C@H](C)O4)c12 (single isomer, unassigned) [Example 200b] | 697
C#Cc1c(F)ccc2cccc(-c3nc4c5c(nc(=O)n(C[C@]67CC(=C)CN6C[C@@H](F)C7)c5c3F)N3C[C@H]5CC[C@H](N5)[C@H]3[C@H](C)O4)c12 (single isomer, unassigned) [Example 202b] | 991
CCc1c(F)ccc2cc(O)cc(-c3nc4c5c(nc(=O)n(C[C@@]67CCCN6C[C@H](F)C7)c5c3F)N3C[C@@](C)(O)CCC3CO4)c12 (single isomer, unassigned) [Example 350a1] | 151
CCc1c(F)ccc2cc(O)cc(-c3nc4c5c(nc(=O)n(C(C)[C@H]6CCN6C)c5c3F)N3C[C@H]5CC[C@H](N5)[C@H]3[C@H](C)O4)c12 (single isomer, unassigned) [Example 376a] | 145
C#Cc1c(F)ccc2cccc(-c3nc4c5c(nc(=O)n(C[C@@]67CCCN6C[C@H](F)C7)c5c3F)N3C[C@H]5CC[C@H](N5)[C@H]3CO4)c12 [Example 1, (5aS,6S,9R)-2-(8-ethynyl-7-fluoronaphthalen-1-yl)-1-fluoro-13-(((2R,7aS)-2-fluorotetrahydro-1H-pyrrolizin-7a(5H)-yl)methyl)-5a,6,7,8,9,10-hexahydro-5H-4-oxa-3,10a,11,13,14-pentaaza-6,9-methanonaphtho[1,8-ab]heptalen-12(13H)-one] | 386
C#Cc1c(F)ccc2cccc(-c3nc4c5c(nc(=O)n(CC67CCCN6CC(=C)C7)c5c3F)N3C[C@H]5CC[C@H](N5)[C@H]3CO4)c12 (stereo partly drawn) [Example 2] | 15
C#Cc1c(F)ccc2cc(O)cc(-c3nc4c5c(nc(=O)n(CC67CCCN6CC(=C)C7)c5c3F)N3C[C@H]5CC[C@H](N5)[C@H]3CO4)c12 (stereo partly drawn) [Example 24] | 85
CCc1c(F)ccc2cc(O)cc(-c3nc4c5c(nc(=O)n(C[C@@]67CCCN6C[C@H](F)C7)c5c3F)N3C[C@H]5CC[C@H](N5)[C@H]3CO4)c12 [Example 45, (8aS,9S,12R)-5-(8-ethyl-7-fluoro-3-hydroxynaphthalen-1-yl)-4-fluoro-3-(((2R,7aS)-2-fluorotetrahydro-1H-pyrrolizin-7a(5H)-yl)methyl)-8a,9,10,11,12,13-hexahydro-8H-7-oxa-1,3,6,13a,14-pentaaza-9,12-methanonaphtho[1,8-ab]heptalen-2(3H)-one] | 23
C=C1CN2CC(=C)CC2(Cn2c(=O)nc3c4c(nc(-c5cc(O)cc6ccc(F)c(CC)c56)c(F)c42)OC[C@@H]2[C@@H]4CC[C@H](CN32)N4)C1 [Example 47] | 629
C#Cc1c(F)ccc2cccc(-c3nc4c5c(nc(=O)n(C[C@@]67CCCN6C[C@H](F)C7)c5c3F)N3C[C@H]5CC[C@H](N5)[C@H]3[C@H](C)O4)c12 [Example 199, (5S,5aS,6S,9R)-2-(8-ethynyl-7-fluoronaphthalen-1-yl)-1-fluoro-13-(((2R,7aS)-2-fluorotetrahydro-1H-pyrrolizin-7a(5H)-yl)methyl)-5-methyl-5a,6,7,8,9,10-hexahydro-5H-4-oxa-3,10a,11,13,14-pentaaza-6,9-methanonaphtho[1,8-ab]heptalen-12(13H)-one] | 37
C#Cc1c(F)ccc2cc(O)cc(-c3nc4c5c(nc(=O)n(CC67CCCN6CC(=C)C7)c5c3F)N3C[C@H]5CC[C@H](N5)[C@H]3[C@H](C)O4)c12 (stereo partly drawn) [Example 222] | 113
CCc1c(F)ccc2cc(O)cc(-c3nc4c5c(nc(=O)n(C[C@@]67CCCN6C[C@H](F)C7)c5c3F)N3C[C@H]5CC[C@H](N5)[C@H]3[C@H](C)O4)c12 [Example 227] | 5.2
C=C1CN2CCCC2(Cn2c(=O)nc3c4c(nc(-c5cc(O)cc6ccc(F)c(CC)c56)c(F)c42)O[C@@H](C)[C@@H]2[C@@H]4CC[C@H](CN32)N4)C1 (stereo partly drawn) [Example 228] | 19
C#Cc1c(F)ccc2cc(O)cc(-c3nc4c5c(cc(=O)n(C[C@@]67CCCN6CC(=C)C7)c5c3F)N3C[C@H]5CC[C@H](N5)[C@H]3[C@H](C)O4)c12 [Example 330, (5S,5aS,6S,9R)-2-(8-ethynyl-7-fluoro-3-hydroxynaphthalen-1-yl)-1-fluoro-5-methyl-14-(((S)-2-methylenetetrahydro-1H-pyrrolizin-7a(5H)-yl)methyl)-5a,6,7,8,9,10-hexahydro-5H-6,9-epiminoazepino[2′,1′:3,4][1,4] oxazepino[5,6,7-de][1,6]naphthyridin-13(14H)-one] | 171
C#Cc1c(F)ccc2cc(O)cc(-c3c(F)c4c5c(cc(=O)n(C[C@@]67CCCN6C[C@H](F)C7)c5c3F)N3C[C@H]5CC[C@H](N5)[C@H]3CO4)c12 [Example 332, (5aS,6S,9R)-2-(8-ethynyl-7-fluoro-3-hydroxynaphthalen-1-yl)-1,3-difluoro-14-(((2R,7aS)-2-fluorotetrahydro-1H-pyrrolizin-7a(5H)-yl)methyl)-5a,6,7,8,9,10-hexahydro-5H-6,9-epiminoazepino[2′,1′:3,4][1,4] oxazepino[5,6,7-de]quinolin-13(14H)-one] | 778
C#Cc1c(F)ccc2cccc(-c3nc4c5c(nc(=O)n([C@H](C)CN6[C@@H]7CC[C@H]6COC7)c5c3F)N3C[C@H]5CC[C@H](N5)[C@H]3[C@H](C)O4)c12 [Example 341, (5S,5aS,6S,9R)-13-((R)-1-((1R,5S)-3-oxa-8-azabicyclo[3.2.1]octan-8-yl)propan-2-yl)-2-(8-ethynyl-7-fluoronaphthalen-1-yl)-1-fluoro-5-methyl-5a,6,7,8,9,10-hexahydro-5H-4-oxa-3,10a,11,13,14-pentaaza-6,9-methanonaphtho[1,8-ab]heptalen-12(13H)-one] | 70
C#Cc1c(F)ccc2cccc(-c3nc4c5c(nc(=O)n(C[C@@]6(C)CCN6C)c5c3F)N3C[C@H]5CC[C@H](N5)[C@H]3[C@H](C)O4)c12 [Example 357, (5S,5aS,6S,9R)-13-(((R)-1,2-dimethylazetidin-2-yl)methyl)-2-(8-ethynyl-7-fluoronaphthalen-1-yl)-1-fluoro-5-methyl-5a,6,7,8,9,10-hexahydro-5H-4-oxa-3,10a,11,13,14-pentaaza-6,9-methanonaphtho[1,8-ab]heptalen-12(13H)-one] | 123

same assay, conditions: Homo sapiens; PANC-1 cells, compound incubation 3 hours, pERK normalised with GAPDH antibody staining

Compound | IC50 [nM]
C#Cc1c(F)ccc2cc(O)cc(-c3nc4c5c(nc(=O)n(C[C@@]67CCCN6C[C@H](F)C7)c5c3F)N3C[C@H]5CC[C@H](N5)[C@H]3CO4)c12 [Example 23, (5aS,6S,9R)-2-(8-ethynyl-7-fluoro-3-hydroxynaphthalen-1-yl)-1-fluoro-13-(((2R,7aS)-2-fluorotetrahydro-1H-pyrrolizin-7a(5H)-yl)methyl)-5a,6,7,8,9,10-hexahydro-5H-4-oxa-3,10a,11,13,14-pentaaza-6,9-methanonaphtho[1,8-ab]heptalen-12(13H)-one] | 96

same assay, conditions: PANC-1 cells, compound incubation 3 hours, pERK normalised with GAPDH antibody staining

Compound | IC50 [nM]
C#Cc1c(F)ccc2cccc(-c3nc4c5c(nc(=O)n(CC(C)(CO)N(C)C)c5c3F)N3C[C@H]5CC[C@H](N5)[C@H]3[C@H](C)O4)c12 (single isomer, unassigned) [Example 365b] | 110
C#Cc1c(F)ccc2cccc(-c3nc4c5c(nc(=O)n(C6C7CC6CN(C)C7)c5c3F)N3C[C@H]5CC[C@H](N5)[C@H]3[C@H](C)O4)c12 (single isomer, unassigned) [Example 371a] | 304
C#Cc1c(F)ccc2cccc(-c3nc4c5c(nc(=O)n(C6C7CC6CN(C)C7)c5c3F)N3C[C@H]5CC[C@H](N5)[C@H]3[C@H](C)O4)c12 (single isomer, unassigned) [Example 371b] | 794
C#Cc1c(F)ccc2cccc(-c3nc4c5c(nc(=O)n(C(C)[C@H]6CCN6C)c5c3F)N3C[C@H]5CC[C@H](N5)[C@H]3[C@H](C)O4)c12 (single isomer, unassigned) [Example 372a] | 391
C#Cc1c(F)ccc2cccc(-c3nc4c5c(nc(=O)n(C(C)[C@H]6CCN6C)c5c3F)N3C[C@H]5CC[C@H](N5)[C@H]3[C@H](C)O4)c12 (single isomer, unassigned) [Example 372b] | 70
CCc1c(F)ccc2cc(O)cc(-c3nc4c5c(nc(=O)n(CC(C)(CO)N(C)C)c5c3F)N3C[C@H]5CC[C@H](N5)[C@H]3[C@H](C)O4)c12 (single isomer, unassigned) [Example 373b] | 137
CCc1c(F)ccc2cc(O)cc(-c3nc4c5c(nc(=O)n(C(C)[C@H]6CCN6C)c5c3F)N3C[C@H]5CC[C@H](N5)[C@H]3[C@H](C)O4)c12 (single isomer, unassigned) [Example 376b] | 133
